Values of other authors as cited in PMC9851200, “Multiparameter phenotypic screening for endogenous TFEB and TFE3 translocation identifies novel chemical series modulating lysosome function” (Autophagy, 2022).

How the values were obtained:
Set-up in all cases: method as in original PKIS2 published data
[1] = biological target: kinases (KINOMEscan panel) (Homo sapiens, UniProt P49840); conditions: GSK3A; Published KINOMEscan; ref original PKIS2 published data; cited from earlier work
[2] = biological target: kinases (KINOMEscan panel) (Homo sapiens, UniProt Q86Z02); conditions: HIPK1; Published KINOMEscan; ref original PKIS2 published data; cited from earlier work
[3] = biological target: T1, kinases (KINOMEscan panel) (Homo sapiens, UniProt Q6ZWH5); conditions: Published KINOMEscan; ref original PKIS2 published data; cited from earlier work
T1 sequence (Q6ZWH5 1-1172): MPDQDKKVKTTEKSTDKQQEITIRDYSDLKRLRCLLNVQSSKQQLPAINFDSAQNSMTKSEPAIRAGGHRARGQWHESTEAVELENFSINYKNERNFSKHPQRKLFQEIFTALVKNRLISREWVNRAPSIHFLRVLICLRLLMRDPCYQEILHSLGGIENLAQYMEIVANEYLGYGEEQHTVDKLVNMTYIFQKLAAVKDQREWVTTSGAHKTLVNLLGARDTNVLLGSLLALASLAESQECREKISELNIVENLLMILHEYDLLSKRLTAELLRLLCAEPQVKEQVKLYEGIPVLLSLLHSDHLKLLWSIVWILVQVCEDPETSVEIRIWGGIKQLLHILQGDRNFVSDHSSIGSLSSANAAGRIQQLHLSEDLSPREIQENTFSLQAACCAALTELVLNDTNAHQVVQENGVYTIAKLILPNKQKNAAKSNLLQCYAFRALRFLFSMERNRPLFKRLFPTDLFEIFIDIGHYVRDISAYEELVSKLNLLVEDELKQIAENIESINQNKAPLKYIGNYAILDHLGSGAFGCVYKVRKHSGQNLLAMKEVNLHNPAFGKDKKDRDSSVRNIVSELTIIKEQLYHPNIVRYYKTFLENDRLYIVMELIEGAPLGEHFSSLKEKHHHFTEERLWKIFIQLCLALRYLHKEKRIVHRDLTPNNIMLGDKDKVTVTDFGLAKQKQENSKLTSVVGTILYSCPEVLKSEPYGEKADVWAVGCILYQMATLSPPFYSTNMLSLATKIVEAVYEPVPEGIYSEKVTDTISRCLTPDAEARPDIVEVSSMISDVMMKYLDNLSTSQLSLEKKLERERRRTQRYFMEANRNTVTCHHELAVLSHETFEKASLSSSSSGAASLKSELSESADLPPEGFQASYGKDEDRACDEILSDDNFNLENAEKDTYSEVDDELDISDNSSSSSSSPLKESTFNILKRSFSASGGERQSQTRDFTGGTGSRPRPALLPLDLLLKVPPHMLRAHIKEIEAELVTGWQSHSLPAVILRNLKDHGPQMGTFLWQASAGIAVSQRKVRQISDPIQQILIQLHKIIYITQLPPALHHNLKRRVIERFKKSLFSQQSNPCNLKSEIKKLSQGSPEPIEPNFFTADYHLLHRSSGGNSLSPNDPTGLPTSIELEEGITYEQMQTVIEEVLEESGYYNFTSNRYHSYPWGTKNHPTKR

[4] = biological target: T2, kinases (KINOMEscan panel) (Homo sapiens, UniProt O15075); conditions: Published KINOMEscan; ref original PKIS2 published data; cited from earlier work
T2 sequence (O15075 1-740): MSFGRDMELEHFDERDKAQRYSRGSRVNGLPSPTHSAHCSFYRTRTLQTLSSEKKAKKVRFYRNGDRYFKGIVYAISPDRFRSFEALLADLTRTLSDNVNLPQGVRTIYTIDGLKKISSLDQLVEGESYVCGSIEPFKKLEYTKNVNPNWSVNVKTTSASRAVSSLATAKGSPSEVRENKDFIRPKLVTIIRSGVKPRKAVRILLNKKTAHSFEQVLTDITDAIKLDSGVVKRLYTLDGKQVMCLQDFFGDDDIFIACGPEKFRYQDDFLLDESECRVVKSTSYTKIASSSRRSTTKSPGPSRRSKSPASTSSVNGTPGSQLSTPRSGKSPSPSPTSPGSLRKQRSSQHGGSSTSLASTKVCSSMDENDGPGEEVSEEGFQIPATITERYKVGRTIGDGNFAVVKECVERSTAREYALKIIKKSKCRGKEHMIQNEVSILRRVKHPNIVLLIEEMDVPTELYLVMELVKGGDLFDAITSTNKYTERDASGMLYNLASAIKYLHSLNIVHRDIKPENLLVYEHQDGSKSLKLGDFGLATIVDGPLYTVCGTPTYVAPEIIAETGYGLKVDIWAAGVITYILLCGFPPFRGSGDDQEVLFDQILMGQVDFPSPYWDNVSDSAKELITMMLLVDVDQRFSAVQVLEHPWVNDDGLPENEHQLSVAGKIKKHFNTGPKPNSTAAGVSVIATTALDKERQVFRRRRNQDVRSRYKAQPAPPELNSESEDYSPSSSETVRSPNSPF

[5] = biological target: kinases (KINOMEscan panel) (Homo sapiens, UniProt P53350); conditions: PLK1; Published KINOMEscan; ref original PKIS2 published data; cited from earlier work
[6] = biological target: kinases (KINOMEscan panel) (Homo sapiens, UniProt P22607); conditions: FGFR3; Published KINOMEscan; ref original PKIS2 published data; cited from earlier work
[7] = biological target: T3, kinases (KINOMEscan panel) (Homo sapiens, UniProt O14730); conditions: RIOK3; Published KINOMEscan; ref original PKIS2 published data; cited from earlier work
T3 sequence (O14730 1-519): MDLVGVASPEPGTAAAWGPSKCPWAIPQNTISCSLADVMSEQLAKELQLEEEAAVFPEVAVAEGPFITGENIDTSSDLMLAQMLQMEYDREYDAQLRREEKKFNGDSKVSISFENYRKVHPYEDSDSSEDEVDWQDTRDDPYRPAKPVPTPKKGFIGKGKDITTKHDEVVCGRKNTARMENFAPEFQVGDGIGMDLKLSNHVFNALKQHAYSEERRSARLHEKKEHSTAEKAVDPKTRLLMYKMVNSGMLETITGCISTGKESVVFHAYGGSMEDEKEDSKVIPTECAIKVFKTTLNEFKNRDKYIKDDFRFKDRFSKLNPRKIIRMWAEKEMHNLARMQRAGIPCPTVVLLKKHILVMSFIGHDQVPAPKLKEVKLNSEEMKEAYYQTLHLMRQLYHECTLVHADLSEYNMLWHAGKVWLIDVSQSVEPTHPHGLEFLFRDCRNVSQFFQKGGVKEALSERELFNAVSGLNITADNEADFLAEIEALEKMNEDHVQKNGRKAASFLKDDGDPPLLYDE

Chain of kinases (KINOMEscan panel) (Homo sapiens, UniProt P49840) (P49840 whole entry): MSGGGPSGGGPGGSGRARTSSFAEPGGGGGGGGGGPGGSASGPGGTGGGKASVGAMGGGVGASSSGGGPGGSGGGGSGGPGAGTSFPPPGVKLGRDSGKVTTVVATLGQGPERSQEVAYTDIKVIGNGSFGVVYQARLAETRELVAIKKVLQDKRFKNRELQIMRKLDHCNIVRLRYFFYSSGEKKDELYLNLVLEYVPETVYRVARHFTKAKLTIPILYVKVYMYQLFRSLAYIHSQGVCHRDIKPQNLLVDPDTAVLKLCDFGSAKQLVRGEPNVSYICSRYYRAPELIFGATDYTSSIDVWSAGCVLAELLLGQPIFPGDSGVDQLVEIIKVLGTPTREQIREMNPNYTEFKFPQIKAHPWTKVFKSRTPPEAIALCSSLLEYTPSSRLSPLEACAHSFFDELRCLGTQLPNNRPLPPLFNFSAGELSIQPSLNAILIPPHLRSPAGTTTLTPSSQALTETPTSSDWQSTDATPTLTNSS
Chain of kinases (KINOMEscan panel) (Homo sapiens, UniProt Q86Z02) (Q86Z02 whole entry): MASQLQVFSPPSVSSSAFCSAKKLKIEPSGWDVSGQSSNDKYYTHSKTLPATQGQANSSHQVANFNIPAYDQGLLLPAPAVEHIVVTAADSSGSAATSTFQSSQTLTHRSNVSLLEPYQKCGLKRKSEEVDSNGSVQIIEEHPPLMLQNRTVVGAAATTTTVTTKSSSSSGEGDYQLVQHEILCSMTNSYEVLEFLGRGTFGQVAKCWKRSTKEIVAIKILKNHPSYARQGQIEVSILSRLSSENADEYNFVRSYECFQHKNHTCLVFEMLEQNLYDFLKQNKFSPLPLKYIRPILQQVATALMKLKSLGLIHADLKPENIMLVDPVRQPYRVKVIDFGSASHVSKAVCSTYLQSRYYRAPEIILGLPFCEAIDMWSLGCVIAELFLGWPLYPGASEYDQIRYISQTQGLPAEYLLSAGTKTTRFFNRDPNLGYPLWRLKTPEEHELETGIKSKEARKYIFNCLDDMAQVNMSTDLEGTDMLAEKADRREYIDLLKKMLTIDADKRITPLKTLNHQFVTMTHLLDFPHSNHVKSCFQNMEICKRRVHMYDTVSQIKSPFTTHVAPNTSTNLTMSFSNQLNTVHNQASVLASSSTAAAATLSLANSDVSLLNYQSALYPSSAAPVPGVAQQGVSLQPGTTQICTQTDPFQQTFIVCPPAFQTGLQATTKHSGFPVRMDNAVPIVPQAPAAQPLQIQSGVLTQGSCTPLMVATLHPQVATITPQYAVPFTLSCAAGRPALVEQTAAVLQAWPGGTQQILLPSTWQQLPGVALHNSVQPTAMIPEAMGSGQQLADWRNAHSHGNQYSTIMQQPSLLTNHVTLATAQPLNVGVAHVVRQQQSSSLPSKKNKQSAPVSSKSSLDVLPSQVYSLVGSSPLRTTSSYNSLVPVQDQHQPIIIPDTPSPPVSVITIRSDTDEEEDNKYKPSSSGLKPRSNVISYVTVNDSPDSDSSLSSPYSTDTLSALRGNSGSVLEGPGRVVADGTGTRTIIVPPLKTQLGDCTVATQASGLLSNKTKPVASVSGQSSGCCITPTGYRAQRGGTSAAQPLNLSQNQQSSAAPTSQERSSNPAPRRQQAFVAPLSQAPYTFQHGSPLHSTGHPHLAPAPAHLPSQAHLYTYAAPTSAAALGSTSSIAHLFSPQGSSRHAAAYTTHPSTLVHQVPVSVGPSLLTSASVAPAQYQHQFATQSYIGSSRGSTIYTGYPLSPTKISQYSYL
Chain of kinases (KINOMEscan panel) (Homo sapiens, UniProt P53350) (P53350 whole entry): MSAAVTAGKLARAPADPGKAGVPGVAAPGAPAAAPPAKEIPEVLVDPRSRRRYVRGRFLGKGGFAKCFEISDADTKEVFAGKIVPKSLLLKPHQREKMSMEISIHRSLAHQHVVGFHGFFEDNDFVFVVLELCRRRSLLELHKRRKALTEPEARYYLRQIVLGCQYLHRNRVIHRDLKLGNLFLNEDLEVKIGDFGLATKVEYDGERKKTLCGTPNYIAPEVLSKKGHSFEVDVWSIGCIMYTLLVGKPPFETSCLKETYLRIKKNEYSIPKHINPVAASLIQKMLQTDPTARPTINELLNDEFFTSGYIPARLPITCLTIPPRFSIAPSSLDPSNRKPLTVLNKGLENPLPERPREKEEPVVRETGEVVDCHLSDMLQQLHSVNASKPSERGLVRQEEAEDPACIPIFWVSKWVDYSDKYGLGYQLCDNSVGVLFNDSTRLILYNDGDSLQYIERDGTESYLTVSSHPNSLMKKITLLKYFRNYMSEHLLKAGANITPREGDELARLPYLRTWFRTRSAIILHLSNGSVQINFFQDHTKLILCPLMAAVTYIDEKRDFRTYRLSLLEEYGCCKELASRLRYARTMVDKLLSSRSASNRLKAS
Chain of kinases (KINOMEscan panel) (Homo sapiens, UniProt P22607) (P22607 23-806): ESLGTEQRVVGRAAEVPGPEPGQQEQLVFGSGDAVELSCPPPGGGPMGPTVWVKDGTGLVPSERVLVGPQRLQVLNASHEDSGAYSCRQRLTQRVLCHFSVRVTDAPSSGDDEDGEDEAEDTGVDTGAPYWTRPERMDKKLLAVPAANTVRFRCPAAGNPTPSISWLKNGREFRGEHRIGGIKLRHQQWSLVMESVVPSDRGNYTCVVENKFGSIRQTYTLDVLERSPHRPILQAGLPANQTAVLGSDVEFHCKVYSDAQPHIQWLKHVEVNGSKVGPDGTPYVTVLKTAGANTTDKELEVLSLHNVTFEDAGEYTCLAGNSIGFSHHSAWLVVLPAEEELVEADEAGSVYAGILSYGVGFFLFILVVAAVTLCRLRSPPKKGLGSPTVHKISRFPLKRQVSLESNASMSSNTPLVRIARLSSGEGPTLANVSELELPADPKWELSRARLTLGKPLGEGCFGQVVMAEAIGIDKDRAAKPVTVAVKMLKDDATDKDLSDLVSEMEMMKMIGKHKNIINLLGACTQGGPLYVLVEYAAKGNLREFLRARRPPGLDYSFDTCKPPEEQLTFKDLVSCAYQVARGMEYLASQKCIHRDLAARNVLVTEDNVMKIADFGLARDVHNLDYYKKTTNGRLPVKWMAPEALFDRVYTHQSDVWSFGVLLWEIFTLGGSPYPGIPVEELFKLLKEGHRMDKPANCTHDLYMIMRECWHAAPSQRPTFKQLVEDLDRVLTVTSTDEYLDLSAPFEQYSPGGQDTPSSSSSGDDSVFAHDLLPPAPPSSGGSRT

For `Cc1cccc(-c2nc(Nc3ccncc3)c3ccccc3n2)n1` [NK215], the “KINOMEscan GSK3A” value [1] is given as 4, the “KINOMEscan HIPK1” value [2] is given as 41 and the “KINOMEscan NEK10” value [3] is given as 0. The “KINOMEscan DCLK1” value [4] was 14, the “KINOMEscan PLK1” value [5] was 6 and the “KINOMEscan FGFR3” value [6] was 2. For the same compound, the “KINOMEscan RIOK3” value [7] was 35.
